Assay results taken from ChEMBL document CHEMBL4725268, “Anticonvulsant and analgesic in neuropathic pain activity in a group of new aminoalkanol derivatives” (Bioorg Med Chem Lett, 2020).
Calls of active or inactive are those of the source. The calls are words filed in the database; no cut-off is given here.

Experiments:
[1] = Genotoxicity in Salmonella typhimurium TA98 assessed as number of revertant at 2.5 ug by AMES test (reference value: 8 to 8.3); type: toxicity, Salmonella enterica subsp. enterica serovar Typhimurium; conditions: in vivo; dose 2.5 µg
[2] = Genotoxicity in Salmonella typhimurium TA98 assessed as mutagenic index at 2.5 ug by AMES test; type: toxicity, Salmonella enterica subsp. enterica serovar Typhimurium; conditions: in vivo; dose 2.5 µg
[3] = tested on: Mus musculus; assay: Anticonvulsant activity in ip dosed mouse assessed as protection against current-induced seizure by maximal electroshock seizure test; type: functional
[4] = Toxicity in mouse assessed as lethality at 50 mg/kg, ip; type: organism-based; conditions: in vivo
[5] = Toxicity in mouse assessed as lethality at 70 mg/kg, ip; type: organism-based; conditions: in vivo
[6] = Toxicity in ip dosed mouse assessed as motor impairment by rotarod test; type: organism-based; conditions: in vivo
[7] = Protection index, ratio of TD50 for toxicity in ip dosed mouse to ED50 for anticonvulsant activity in ip dosed mouse; type: organism-based; conditions: in vivo, read-out: PI
[8] = target: T1, 5-hydroxytryptamine receptor 1A (Homo sapiens) (UniProt P08908); assay: Binding affinity to 5-HT1A (unknown origin) at 10^-5 M; conditions: dose 1.0 10^-5M
T1 sequence (whole entry): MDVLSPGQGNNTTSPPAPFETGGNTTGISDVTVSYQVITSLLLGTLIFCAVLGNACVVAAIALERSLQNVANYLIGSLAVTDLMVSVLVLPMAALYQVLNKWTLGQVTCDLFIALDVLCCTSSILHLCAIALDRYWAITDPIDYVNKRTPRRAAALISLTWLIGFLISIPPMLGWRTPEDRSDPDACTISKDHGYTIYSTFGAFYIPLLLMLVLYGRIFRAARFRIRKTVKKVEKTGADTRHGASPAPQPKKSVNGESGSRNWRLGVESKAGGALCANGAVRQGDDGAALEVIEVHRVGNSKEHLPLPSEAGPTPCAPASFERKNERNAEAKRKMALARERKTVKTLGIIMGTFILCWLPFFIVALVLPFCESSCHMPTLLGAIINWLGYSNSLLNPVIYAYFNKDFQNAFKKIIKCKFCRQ

[9] = tested on: Enterococcus faecalis; assay: Antimicrobial activity against Enterococcus faecalis ATCC 29212 assessed as reduction in bacterial growth at 0.195 to 100 ug/ml by serial dilution method; type: organism-based; conditions: in vivo, dose 0.195-100 µg/ml
[10] = tested on: Escherichia coli; assay: Antimicrobial activity against Escherichia coli ATCC 25922 assessed as reduction in bacterial growth at 0.195 to 100 ug/ml by serial dilution method; type: organism-based; conditions: in vivo, dose 0.195-100 µg/ml
[11] = tested on: Escherichia coli; assay: Antimicrobial activity against Escherichia coli ATCC 35218 assessed as reduction in bacterial growth at 0.195 to 100 ug/ml by serial dilution method; type: organism-based; conditions: in vivo, dose 0.195-100 µg/ml
[12] = tested on: Staphylococcus aureus; assay: Antimicrobial activity against Staphylococcus aureus ATCC 25923 assessed as reduction in bacterial growth at 0.195 to 100 ug/ml by serial dilution method; type: organism-based; conditions: in vivo, dose 0.195-100 µg/ml
[13] = tested on: Staphylococcus aureus; assay: Antimicrobial activity against clinical strain Staphylococcus aureus assessed as reduction in bacterial growth at 0.195 to 100 ug/ml by serial dilution method; type: organism-based; conditions: in vivo, dose 0.195-100 µg/ml
[14] = tested on: Salmonella enterica; assay: Antimicrobial activity against Salmonella enterica ATCC 51957 assessed as reduction in bacterial growth at 0.195 to 100 ug/ml by serial dilution method; type: organism-based; conditions: in vivo, dose 0.195-100 µg/ml
[15] = tested on: Bacteroides fragilis; assay: Antimicrobial activity against Bacteroides fragilis ATCC 25285 assessed as reduction in bacterial growth at 0.195 to 100 ug/ml by disk diffusion method; type: organism-based; conditions: in vivo, dose 0.195-100 µg/ml
[16] = tested on: Hoylesella loescheii; assay: Antimicrobial activity against Prevotella loescheii ATCC 15930 assessed as reduction in bacterial growth at 0.195 to 100 ug/ml by disk diffusion method; type: organism-based, DSM 19665 = JCM 12249 = ATCC 15930; conditions: in vivo, dose 0.195-100 µg/ml
[17] = Antimicrobial activity against clinical strain Bifidobacterium assessed as reduction in bacterial growth at 0.195 to 100 ug/ml by disk diffusion method; conditions: dose 0.195-100 µg/ml
[18] = tested on: Clostridioides difficile; assay: Antimicrobial activity against clinical strain Clostridium difficile assessed as reduction in bacterial growth at 0.195 to 100 ug/ml by disk diffusion method; type: organism-based; conditions: in vivo, dose 0.195-100 µg/ml
[19] = Drug metabolism in mouse microsome assessed as formation of monohydroxylated metabolite; type: ADME; conditions: microsomes
[20] = Genotoxicity in Salmonella typhimurium TA100 assessed as number of revertant at 10 ug by AMES test (reference value: 64.3 to 130.7); type: toxicity, Salmonella enterica subsp. enterica serovar Typhimurium; conditions: in vivo; dose 10 µg
[21] = Genotoxicity in Salmonella typhimurium TA100 assessed as number of revertant at 75 ug by AMES test (reference value: 64.3 to 130.7); type: toxicity, Salmonella enterica subsp. enterica serovar Typhimurium; conditions: in vivo; dose 75 µg
[22] = Genotoxicity in Salmonella typhimurium TA100 assessed as number of revertant at 200 ug by AMES test (reference value: 64.3 to 130.7); type: toxicity, Salmonella enterica subsp. enterica serovar Typhimurium; conditions: in vivo; dose 200 µg
[23] = Genotoxicity in Salmonella typhimurium TA100 assessed as number of revertant at 500 ug by AMES test (reference value: 64.3 to 130.7); type: toxicity, Salmonella enterica subsp. enterica serovar Typhimurium; conditions: in vivo; dose 500 µg
[24] = Genotoxicity in Salmonella typhimurium TA100 assessed as number of revertant at 750 ug by AMES test (reference value: 64.3 to 130.7); type: toxicity, Salmonella enterica subsp. enterica serovar Typhimurium; conditions: in vivo; dose 750 µg
[25] = Genotoxicity in Salmonella typhimurium TA100 assessed as mutagenic index at 10 ug by AMES test; type: toxicity, Salmonella enterica subsp. enterica serovar Typhimurium; conditions: in vivo; dose 10 µg
[26] = Genotoxicity in Salmonella typhimurium TA100 assessed as mutagenic index at 75 ug by AMES test; type: toxicity, Salmonella enterica subsp. enterica serovar Typhimurium; conditions: in vivo; dose 75 µg
[27] = Genotoxicity in Salmonella typhimurium TA100 assessed as mutagenic index at 200 ug by AMES test; type: toxicity, Salmonella enterica subsp. enterica serovar Typhimurium; conditions: in vivo; dose 200 µg
[28] = Genotoxicity in Salmonella typhimurium TA100 assessed as mutagenic index at 500 ug by AMES test; type: toxicity, Salmonella enterica subsp. enterica serovar Typhimurium; conditions: in vivo; dose 500 µg
[29] = Genotoxicity in Salmonella typhimurium TA100 assessed as mutagenic index at 750 ug by AMES test; type: toxicity, Salmonella enterica subsp. enterica serovar Typhimurium; conditions: in vivo; dose 750 µg
[30] = Genotoxicity in Salmonella typhimurium TA98 assessed as number of revertant at 10 ug by AMES test (reference value: 8 to 8.3); type: toxicity, Salmonella enterica subsp. enterica serovar Typhimurium; conditions: in vivo; dose 10 µg
[31] = Genotoxicity in Salmonella typhimurium TA98 assessed as number of revertant at 75 ug by AMES test (reference value: 8 to 8.3); type: toxicity, Salmonella enterica subsp. enterica serovar Typhimurium; conditions: in vivo; dose 75 µg
[32] = Genotoxicity in Salmonella typhimurium TA98 assessed as number of revertant at 200 ug by AMES test (reference value: 8 to 8.3); type: toxicity, Salmonella enterica subsp. enterica serovar Typhimurium; conditions: in vivo; dose 200 µg
[33] = Genotoxicity in Salmonella typhimurium TA98 assessed as number of revertant at 500 ug by AMES test (reference value: 8 to 8.3); type: toxicity, Salmonella enterica subsp. enterica serovar Typhimurium; conditions: in vivo; dose 500 µg
[34] = Genotoxicity in Salmonella typhimurium TA98 assessed as number of revertant at 750 ug by AMES test (reference value: 8 to 8.3); type: toxicity, Salmonella enterica subsp. enterica serovar Typhimurium; conditions: in vivo; dose 750 µg
[35] = Genotoxicity in Salmonella typhimurium TA98 assessed as mutagenic index at 10 ug by AMES test; type: toxicity, Salmonella enterica subsp. enterica serovar Typhimurium; conditions: in vivo; dose 10 µg
[36] = Genotoxicity in Salmonella typhimurium TA98 assessed as mutagenic index at 75 ug by AMES test; type: toxicity, Salmonella enterica subsp. enterica serovar Typhimurium; conditions: in vivo; dose 75 µg
[37] = Genotoxicity in Salmonella typhimurium TA98 assessed as mutagenic index at 200 ug by AMES test; type: toxicity, Salmonella enterica subsp. enterica serovar Typhimurium; conditions: in vivo; dose 200 µg
[38] = Genotoxicity in Salmonella typhimurium TA98 assessed as mutagenic index at 500 ug by AMES test; type: toxicity, Salmonella enterica subsp. enterica serovar Typhimurium; conditions: in vivo; dose 500 µg
[39] = Genotoxicity in Salmonella typhimurium TA98 assessed as mutagenic index at 750 ug by AMES test; type: toxicity, Salmonella enterica subsp. enterica serovar Typhimurium; conditions: in vivo; dose 750 µg
[40] = in vitro; conditions: mouse, microsomes
Description: Metabolic stability in mouse microsome assessed as half life

[41] = in vitro; conditions: mouse, microsomes; remark: listed apart in the source
Description: Metabolic stability in mouse microsome assessed as intrinsic clearance

Nc1ccc([N+](=O)[O-])cc1N
Activity [1]: 519 | Activity_index [2]: 62.3

Cc1ccc(OCCCCN[C@H](C)CO)c(C)c1
ED50 [3]: 52.5 mg/kg | Activity [4]: Non-Toxic | Activity [5]: Non-Toxic | TD50 [6]: 136 mg/kg | selectivity ratio [7]: 2.59 | Activity [8]: inactive | Activity [9]: Non-Toxic | Activity [10]: Non-Toxic | Activity [11]: Non-Toxic | Activity [12]: Non-Toxic | Activity [13]: Non-Toxic | Activity [14]: Non-Toxic | Activity [15]: Non-Toxic | Activity [16]: Non-Toxic | Activity [17]: Non-Toxic | Activity [18]: Non-Toxic

Cc1ccc(OCCCN2CCCC(O)C2)c(C)c1 (racemic)
ED50 [3]: 34.8 mg/kg | Activity [4]: Non-Toxic | TD50 [6]: 108 mg/kg | selectivity ratio [7]: 3.09 | Activity [8]: inactive | Drug metabolism [19]: Metabolite_Detected | Activity [20]: 89.5 | Activity [21]: 69.5 | Activity [22]: 88.5 | Activity [23]: 81 | Activity [24]: 3869.5 | Activity_index [25]: 1.2 | Activity_index [26]: 1 | Activity_index [27]: 1.2 | Activity_index [28]: 1.1 | Activity_index [29]: 53.4 | Activity [30]: 6.3 | Activity [31]: 8 | Activity [32]: 6.7 | Activity [33]: 4.7 | Activity [34]: 3.3 | Activity_index [35]: 0.4 | Activity_index [36]: 0.8 | Activity_index [37]: 1.2 | Activity_index [38]: 1 | Activity_index [39]: 1 | half-life [40]: 28.6 min | microsomal CLint [41]: 60.5 µL/min/mg
